Test results taken from patent US20240116985A1, “STAPLED PEPTIDES AND METHODS THEREOF” (priority 2020, published 2024).

Molecular target: T1, full-length beta-Catenin (Uniprot ID P35222) (Homo sapiens, UniProt P35222)
T1 construct: 10 nM full-length beta-Catenin (Uniprot ID P35222)
T1 sequence (P35222 1-781): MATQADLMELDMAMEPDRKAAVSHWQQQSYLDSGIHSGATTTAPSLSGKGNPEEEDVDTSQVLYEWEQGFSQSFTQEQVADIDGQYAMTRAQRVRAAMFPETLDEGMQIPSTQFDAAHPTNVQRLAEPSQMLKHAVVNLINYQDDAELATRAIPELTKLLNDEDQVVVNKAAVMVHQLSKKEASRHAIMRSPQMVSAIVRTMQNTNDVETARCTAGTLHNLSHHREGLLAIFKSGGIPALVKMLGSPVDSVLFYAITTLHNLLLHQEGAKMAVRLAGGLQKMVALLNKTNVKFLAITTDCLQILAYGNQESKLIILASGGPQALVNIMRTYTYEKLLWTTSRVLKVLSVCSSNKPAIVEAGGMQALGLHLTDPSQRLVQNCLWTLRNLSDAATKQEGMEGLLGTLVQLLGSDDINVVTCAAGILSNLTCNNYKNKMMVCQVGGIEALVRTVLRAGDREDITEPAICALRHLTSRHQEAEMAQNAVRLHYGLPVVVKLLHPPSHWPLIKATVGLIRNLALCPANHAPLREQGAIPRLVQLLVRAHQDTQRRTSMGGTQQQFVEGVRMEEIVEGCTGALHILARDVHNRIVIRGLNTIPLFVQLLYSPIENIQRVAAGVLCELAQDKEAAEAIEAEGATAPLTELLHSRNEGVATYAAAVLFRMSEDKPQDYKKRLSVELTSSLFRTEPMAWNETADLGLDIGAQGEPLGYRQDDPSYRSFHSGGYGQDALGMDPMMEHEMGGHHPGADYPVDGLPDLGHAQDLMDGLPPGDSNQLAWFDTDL
Experiment: Fluorescence polarization IC50 (beta-catenin / 5FAM-TCF4 10-53 competition)
Format: binding
Details: fluorescence polarization; read-out: beta-Catenin FP IC50

| IC50 [nM] | Compound |
| --- | --- |
| 186 | CC(=O)N1CCC[C@H]1C(=O)N[C@@H](CC(=O)O)C(=O)N[C@@H](CC(C)(C)C)C(=O)N[C@]1(C)CCC=CCCCOC(=O)N2CC[C@@](C(=O)N[C@@H](Cc3ccsc3)C(=O)N[C@@H](Cc3csc4ccccc34)C(=O)N[C@@H](CCC(N)=O)C(N)=O)(C2)NC(=O)[C@H](CC(C)C)NC(=O)[C@H](Cc2ccccc2)NC(=O)[C@H](C)NC(=O)[C@H](C)NC(=O)[C@H](CC(=O)O)NC(=O)[C@H](CC(=O)O)NC1=O [I-1989, Ac-Pro-Asp-Npg-R4-Asp-Asp-Ala-Ala-Phe-Leu-PyrS2-3Thi-BztA-Gln-NH2] |
| 585 | CC(=O)N1CCC[C@H]1C(=O)N[C@@H](CC(=O)O)C(=O)N[C@@H](CC(C)(C)C)C(=O)N[C@]1(C)CC=CCCCOC(=O)N2CC[C@@](C(=O)N[C@@H](Cc3ccsc3)C(=O)N[C@@H](Cc3csc4ccccc34)C(=O)N[C@@H](CCC(N)=O)C(N)=O)(C2)NC(=O)[C@H](CC(C)C)NC(=O)[C@H](Cc2ccccc2)NC(=O)[C@H](C)NC(=O)[C@H](C)NC(=O)[C@H](CC(=O)O)NC(=O)[C@H](CC(=O)O)NC1=O [I-1990, Ac-Pro-Asp-Npg-R3-Asp-Asp-Ala-Ala-Phe-Leu-PyrS2-3Thi-BztA-Gln-NH2] |
| 397 | CC(=O)N1CCC[C@H]1C(=O)N[C@@H](CC(=O)O)C(=O)N[C@@H](CC(C)(C)C)C(=O)N[C@]1(C)CCCCCCCCCOC(=O)N2CC[C@@](C(=O)N[C@@H](Cc3ccsc3)C(=O)N[C@@H](Cc3csc4ccccc34)C(=O)N[C@@H](CCC(N)=O)C(N)=O)(C2)NC(=O)[C@H](CC(C)C)NC(=O)[C@H](Cc2ccccc2)NC(=O)[C@H](C)NC(=O)[C@H](C)NC(=O)[C@H](CC(=O)O)NC(=O)[C@H](CC(=O)O)NC1=O [I-1991, Ac-Pro-Asp-Npg-R6-Asp-Asp-Ala-Ala-Phe-Leu-PyrS2-3Thi-BztA-Gln-NH2] |
| 536 | CC(=O)N1CCC[C@H]1C(=O)N[C@@H](CC(=O)O)C(=O)N[C@@H](CC(C)(C)C)C(=O)N[C@]1(C)CCCCCCCOC(=O)N2CC[C@@](C(=O)N[C@@H](Cc3ccsc3)C(=O)N[C@@H](Cc3csc4ccccc34)C(=O)N[C@@H](CCC(N)=O)C(N)=O)(C2)NC(=O)[C@H](CC(C)C)NC(=O)[C@H](Cc2ccccc2)NC(=O)[C@H](C)NC(=O)[C@H](C)NC(=O)[C@H](CC(=O)O)NC(=O)[C@H](CC(=O)O)NC1=O [I-1992, Ac-Pro-Asp-Npg-R4-Asp-Asp-Ala-Ala-Phe-Leu-PyrS2-3Thi-BztA-Gln-NH2] |
| 728 | CC(=O)N1CCC[C@H]1C(=O)N[C@@H](CC(=O)O)C(=O)N[C@@H](CC(C)(C)C)C(=O)N[C@]1(C)CCCCCCOC(=O)N2CC[C@@](C(=O)N[C@@H](Cc3ccsc3)C(=O)N[C@@H](Cc3csc4ccccc34)C(=O)N[C@@H](CCC(N)=O)C(N)=O)(C2)NC(=O)[C@H](CC(C)C)NC(=O)[C@H](Cc2ccccc2)NC(=O)[C@H](C)NC(=O)[C@H](C)NC(=O)[C@H](CC(=O)O)NC(=O)[C@H](CC(=O)O)NC1=O [I-1993, Ac-Pro-Asp-Npg-R3-Asp-Asp-Ala-Ala-Phe-Leu-PyrS2-3Thi-BztA-Gln-NH2] |
| 3390 | CC(=O)N1CCC[C@]12CC=CCCCC1(CCCC=CCCCOC(=O)N3CC[C@@](C(=O)N[C@@H](Cc4cccc(C(F)(F)F)c4)C(=O)N[C@@H](Cc4csc5ccccc45)C(=O)N[C@@H](CCC(N)=O)C(N)=O)(C3)NC(=O)[C@H](CC(N)=O)NC(=O)[C@H](Cc3ccccc3)NC(=O)[C@H](C)NC(=O)[C@H](C)NC(=O)[C@H]([C@@H](C)O)NC(=O)[C@H](CC(N)=O)NC1=O)NC(=O)[C@H](CC(C)(C)C)NC(=O)[C@H](CC(=O)O)NC2=O (stereo partly drawn) [I-1997, Ac-PL3-Asp-Npg-B5-Asn-Thr-Ala-Ala-Phe-Asn-PyrS2-3F3MeF-BztA-Gln-NH2] |
| 732 | CC(=O)N1CCC[C@]12CC=CCCCC1(CCCC=CCCCOC(=O)N3CC[C@@](C(=O)N[C@@H](Cc4ccccc4Cl)C(=O)N[C@@H](Cc4csc5ccccc45)C(=O)N[C@@H](CCC(N)=O)C(N)=O)(C3)NC(=O)[C@H](CC(N)=O)NC(=O)[C@H](Cc3ccccc3)NC(=O)[C@H](C)NC(=O)[C@H](C)NC(=O)[C@H]([C@@H](C)O)NC(=O)[C@H](CC(N)=O)NC1=O)NC(=O)[C@H](CC(C)(C)C)NC(=O)[C@H](CC(=O)O)NC2=O (stereo partly drawn) [I-1998, Ac-PL3-Asp-Npg-B5-Asn-Thr-Ala-Ala-Phe-Asn-PyrS2-2C1F-BztA-Gln-NH2] |
| 4940 | CC(=O)N1CCC[C@]12CC=CCCCC1(CCCC=CCCCOC(=O)N3CC[C@@](C(=O)N[C@@H](Cc4ccccc4Cl)C(=O)N[C@@H](Cc4csc5ccccc45)C(=O)N[C@@H](CCC(N)=O)C(N)=O)(C3)NC(=O)[C@H](CC(N)=O)NC(=O)[C@H](Cc3ccccc3)NC(=O)[C@H](C)NC(=O)[C@H](C)NC(=O)[C@H]([C@@H](C)O)NC(=O)[C@H](CC(N)=O)NC1=O)NC(=O)[C@H](CC(C)(C)C)NC(=O)[C@H](CC(=O)O)NC2=O (stereo partly drawn) [I-1999, Ac-PL3-Asp-Npg-B5-Asn-Thr-Ala-Ala-Phe-Asn-PyrS2-2C1F-BztA-Gln-NH2] |
| 6560 | CC(=O)N1CCC[C@]12CC=CCCCC1(CCCC=CCCCOC(=O)N3CC[C@@](C(=O)N[C@@H](Cc4cccc(Cl)c4)C(=O)N[C@@H](Cc4csc5ccccc45)C(=O)N[C@@H](CCC(N)=O)C(N)=O)(C3)NC(=O)[C@H](CC(N)=O)NC(=O)[C@H](Cc3ccccc3)NC(=O)[C@H](C)NC(=O)[C@H](C)NC(=O)[C@H]([C@@H](C)O)NC(=O)[C@H](CC(N)=O)NC1=O)NC(=O)[C@H](CC(C)(C)C)NC(=O)[C@H](CC(=O)O)NC2=O (stereo partly drawn) [I-2000, Ac-PL3-Asp-Npg-B5-Asn-Thr-Ala-Ala-Phe-Asn-PyrS2-3C1F-BztA-Gln-NH2] |
| 4450 | CC(=O)N1CCC[C@]12CC=CCCCC1(CCCC=CCCCOC(=O)N3CC[C@@](C(=O)N[C@@H](Cc4cccc(Cl)c4)C(=O)N[C@@H](Cc4csc5ccccc45)C(=O)N[C@@H](CCC(N)=O)C(N)=O)(C3)NC(=O)[C@H](CC(N)=O)NC(=O)[C@H](Cc3ccccc3)NC(=O)[C@H](C)NC(=O)[C@H](C)NC(=O)[C@H]([C@@H](C)O)NC(=O)[C@H](CC(N)=O)NC1=O)NC(=O)[C@H](CC(C)(C)C)NC(=O)[C@H](CC(=O)O)NC2=O (stereo partly drawn) [I-2001, Ac-PL3-Asp-Npg-B5-Asn-Thr-Ala-Ala-Phe-Asn-PyrS2-3C1F-BztA-Gln-NH2] |
| 612 | CC(=O)N1CCC[C@]12CC=CCCCC1(CCCC=CCCCOC(=O)N3CC[C@@](C(=O)N[C@@H](Cc4ccsc4)C(=O)N[C@@H](Cc4csc5ccccc45)C(=O)N[C@@H](CCC(N)=O)C(N)=O)(C3)NC(=O)[C@H](CC(N)=O)NC(=O)[C@H](Cc3ccccc3)NC(=O)[C@H](C)NC(=O)[C@H](C)NC(=O)[C@H]([C@@H](C)O)NC(=O)[C@H](CC(N)=O)NC1=O)NC(=O)[C@H](C)NC(=O)[C@H](CC(=O)O)NC2=O (stereo partly drawn) [I-2002, Ac-PL3-Asp-Ala-B5-Asn-Thr-Ala-Ala-Phe-Asn-PyrS2-3Thi-BztA-Gln-NH2] |
| 1020 | CC(=O)N1CCC[C@]12CC=CCCCC1(CCCC=CCCCOC(=O)N3CC[C@@](C(=O)N[C@@H](Cc4ccsc4)C(=O)N[C@@H](Cc4csc5ccccc45)C(=O)N[C@@H](CCC(N)=O)C(N)=O)(C3)NC(=O)[C@H](CC(N)=O)NC(=O)[C@H](Cc3ccccc3)NC(=O)[C@H](C)NC(=O)[C@H](C)NC(=O)[C@H]([C@@H](C)O)NC(=O)[C@H](CC(N)=O)NC1=O)NC(=O)[C@H](C)NC(=O)[C@H](CC(=O)O)NC2=O (stereo partly drawn) [I-2003, Ac-PL3-Asp-Ala-B5-Asn-Thr-Ala-Ala-Phe-Asn-PyrS2-3Thi-BztA-Gln-NH2] |
